Measured values reported in article PMC6664820, “Novel natural and synthetic inhibitors of solute carriers SGLT1 and SGLT2” (Pharmacology Research & Perspectives, 2019).
Where a name gives a salt, the structure may show the parent alone. Read-outs that look alike come from different tables or passages of the source.

Tests used:
[1] = target: T1, hSGLT2 (Homo sapiens, UniProt P31639); test: SGLT2 inhibition assay for validation of screening hits and similar compounds (1‐NBD‐glucose uptake, CHO‐hSGLT2 cells); format: cell-based; set-up: activity: dose or concentration left out as unconfirmed; conditions: for remaining activity at 5 µM / remaining activity at 50 µM: 0.5 h, concentration not given, read-out: NORMALIZED SGLT2 ACTIVITY (%); for remaining activity at 5 µM / remaining activity at 50 µM / activity: mean; for activity: compound, normalized 1-NBD-glucose uptake, CHO-hSGLT2 cells; for SGLT2/SGLT1 ACTIVITY RATIO 5 uM Mean: ratio of normalized SGLT2 to SGLT1 activity at 5 uM
T1 sequence (P31639 1-672): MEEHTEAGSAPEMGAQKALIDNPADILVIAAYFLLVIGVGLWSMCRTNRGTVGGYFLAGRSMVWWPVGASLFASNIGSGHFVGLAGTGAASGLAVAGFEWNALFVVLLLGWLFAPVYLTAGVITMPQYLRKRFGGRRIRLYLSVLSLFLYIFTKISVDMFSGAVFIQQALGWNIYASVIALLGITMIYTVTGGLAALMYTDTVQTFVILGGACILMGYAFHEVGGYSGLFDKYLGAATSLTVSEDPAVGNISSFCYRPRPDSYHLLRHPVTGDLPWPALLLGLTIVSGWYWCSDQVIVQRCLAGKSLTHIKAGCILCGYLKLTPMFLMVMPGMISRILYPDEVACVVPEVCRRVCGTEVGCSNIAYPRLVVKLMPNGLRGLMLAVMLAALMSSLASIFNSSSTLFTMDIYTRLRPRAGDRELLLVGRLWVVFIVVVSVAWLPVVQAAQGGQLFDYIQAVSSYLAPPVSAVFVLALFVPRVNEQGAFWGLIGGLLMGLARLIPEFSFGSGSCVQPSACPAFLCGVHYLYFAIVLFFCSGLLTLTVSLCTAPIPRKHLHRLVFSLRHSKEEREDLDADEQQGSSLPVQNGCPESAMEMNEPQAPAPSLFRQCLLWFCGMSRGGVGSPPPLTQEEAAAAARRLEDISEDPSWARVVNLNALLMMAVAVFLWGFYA

[2] = target: T2, SGLT1 (Homo sapiens, UniProt P13866); test: SGLT1 inhibition assay for validation of screening hits and similar compounds (1‐NBD‐glucose uptake, CHO‐hSGLT1 cells); format: cell-based; set-up: activity: dose or concentration left out as unconfirmed; conditions: for remaining activity at 5 µM / remaining activity at 50 µM: 0.5 h, concentration not given, read-out: NORMALIZED SGLT1 ACTIVITY (%); for remaining activity at 5 µM / remaining activity at 50 µM / activity: mean; for inhibition at 50 µM: mean inhibition with 50 μmol/L inhibitor, read-out: SGLT1 inhibition; for activity: compound, normalized 1-NBD-glucose uptake, CHO-hSGLT1 cells
T2 sequence (P13866 1-664): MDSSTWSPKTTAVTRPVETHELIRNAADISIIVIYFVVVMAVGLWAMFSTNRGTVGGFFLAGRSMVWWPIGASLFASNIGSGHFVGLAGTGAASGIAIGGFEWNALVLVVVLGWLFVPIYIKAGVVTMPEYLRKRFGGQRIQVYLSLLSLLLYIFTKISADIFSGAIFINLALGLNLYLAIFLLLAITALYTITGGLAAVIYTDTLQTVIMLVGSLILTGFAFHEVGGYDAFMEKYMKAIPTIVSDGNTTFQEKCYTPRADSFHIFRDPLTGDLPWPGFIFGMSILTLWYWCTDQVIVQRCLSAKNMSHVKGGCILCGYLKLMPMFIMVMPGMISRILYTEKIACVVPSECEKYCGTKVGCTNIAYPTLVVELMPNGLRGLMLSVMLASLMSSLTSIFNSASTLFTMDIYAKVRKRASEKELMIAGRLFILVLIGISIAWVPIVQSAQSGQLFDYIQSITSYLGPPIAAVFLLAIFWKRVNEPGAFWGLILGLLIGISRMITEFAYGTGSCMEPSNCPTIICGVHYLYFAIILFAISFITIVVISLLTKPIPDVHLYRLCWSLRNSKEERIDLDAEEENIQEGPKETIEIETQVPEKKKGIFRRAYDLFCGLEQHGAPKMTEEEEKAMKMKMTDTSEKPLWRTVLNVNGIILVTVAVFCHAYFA

[3] = mean inhibition with 50 μmol/L inhibitor

SMILES | remaining activity at 5 µM [1] [%] | remaining activity at 50 µM [1] [%] | remaining activity at 5 µM [2] [%] | remaining activity at 50 µM [2] [%] | other results
Oc1ccc([C@H]2Oc3cc(O)cc4c3[C@@H]2c2cc(O)cc3c2[C@@H](c2cc(O)cc5c2[C@@H]4[C@H](c2ccc(O)cc2)O5)[C@H](c2ccc(O)cc2)O3)cc1 [a-Viniferin] | 104 | 109 | 96 | 102 | –
Oc1ccc(C=Cc2cc(O)cc3c2C(c2cc(O)cc(O)c2)C(c2ccc(O)cc2)O3)cc1 (stereo not drawn) [(+)‐ε‐viniferin] | – | – | – | – | IC50 ([1]; 1‐NBD‐glucose uptake, CHO‐hSGLT2, mean of n biological replicates, or individual measurements where n=2, read-out: SGLT2‐IC50 Mean): 110 µM; SGLT2 inhibition [1, 3]: little inhibition of SGLT2; IC50 ([2]; 1‐NBD‐glucose uptake, CHO‐hSGLT1, mean of n biological replicates, or individual measurements where n=2, read-out: SGLT1‐IC50 Mean): 58 µM; SGLT2/SGLT1‐50μmol/L (ratio of SGLT2 to SGLT1 activities with 50 μmol/L inhibitor) ([2]; listed as (+)‐ε‐Viniferin): 1.4; inhibition at 50 µM [2]: 44%
CC1(C)Oc2ccc3ccc(=O)oc3c2C[C@H]1O [(+)-Lomatin] | – | – | – | – | activity [1]: 115%; SGLT2/SGLT1 ACTIVITY RATIO 5 uM Mean [1]: 0.9; activity [2]: 124%
Cc1cccc(C)c1NC(=O)CN1CCCC1=O [Nefiracetam] | 87 | 84 | 95 | 95 | –
C=CC(C)(O)CC/C=C(\C)C(=O)OC1C(O)C(CO)OC(OC(=O)C23CCC(C)(C)CC2C2=CCC4C5(C)CCC(OC6OC(COC7OCC(OC(C)=O)C(O)C7OC7OC(COC(C)=O)C(O)C(O)C7O)C(O)C(O)C6O)C(C)(C)C5CCC4(C)C2(C)C(O)C3O)C1OC1OCC(OC2OCC(O)C(OC3OCC(O)C(O)C3O)C2O)C(O)C1O (stereo not shown) | 111 | 71 | 112 | 54 | –
c1ccc(CN2CCCCC2)cc1 [1-Benzylpiperidine] | 94 | 93 | 109 | 102 | –
OC(CCN1CCCC1)(c1ccccc1)C1CCCCC1 (stereo not shown) [Procyclidine HCl] | – | – | – | – | activity [1]: 76%; activity [2]: 74%
Oc1c(Cl)cc(Cl)c2cccnc12 | 114 | 91 | 115 | 57 | –
CCCNC(C)C(=O)Nc1ccccc1C (stereo not shown) [Prilocaine] | 89 | 76 | 95 | 86 | –
Oc1c(I)cc(I)c2cccnc12 | 107 | 107 | 109 | 106 | –
CCN(CC)CCOC(=O)C1(c2ccccc2)CCCC1 [Caramiphen, reference compound] | – | – | – | – | inhibition at 50 µM [1, 3]: 58%; SGLT2/SGLT1‐50μmol/L (ratio of SGLT2 to SGLT1 activities with 50 μmol/L inhibitor) [2]: 0.6; inhibition at 50 µM [2]: 33%
CC(=O)OC1C(OC(=O)C2(C)OC2C)c2c(ccc3ccc(=O)oc23)OC1(C)C (stereo not shown) | – | – | – | – | activity [1]: 90%; SGLT2/SGLT1 ACTIVITY RATIO 5 uM Mean [1]: 0.9; activity [2]: 102%
COc1cc(O)c2c(=O)c(-c3ccc(OC4OC(CO)C(O)C(O)C4O)cc3)coc2c1 (stereo not shown) [Prunetin‐4‐p‐galactoside] | – | – | – | – | inhibition at 50 µM [1, 3]: 12%; SGLT2/SGLT1‐50μmol/L (ratio of SGLT2 to SGLT1 activities with 50 μmol/L inhibitor) [2]: 2.3; inhibition at 50 µM [2]: 62%
Fc1ccccc1CN1CC[C@H](c2nnc(-c3ccco3)o2)C1 | 100 | 94 | 117 | 117 | –
Oc1c(I)cc(Cl)c2cccnc12 [Clioquinol, 5-Chloro-7-iodo-8-quinolinol] | 107 | 92 | 107 | 84 | –
CCCCN1CCCC[C@H]1C(=O)Nc1c(C)cccc1C [levobupivacaine, reference compound] | 73 | 46 | 74 | 41 | SGLT1/2 inhibition stated in words ([2]; SGLT1 and/or SGLT2, discussion statements): novel SGLT1/2 inhibitors
CN1CC[C@H](c2nc3ccccc3s2)C1 | 104 | 112 | 116 | 116 | –
